Patent US12728181B2, “Solution blow spun polymer constructs, compositions and methods of fabrications and uses relating thereto” (University of Maryland, College Park, priority 2019, dated 2026)

Columns and labels:
[1] = test system: mouse; conditions: in vivo, ip
Source text: To determine the potential immune response to the fast-degrading components of the PSTA, we employed an intraperitoneal space implantation mouse model used to evaluate fibrosis (Doloff, J. C. et al. (2017) Colony Stimulating Factor-1 Receptor Is a Central Component of the Foreign Body Response to Biomaterial Implants in Rodents and Non-Human Primates, Nat. Mater. 16(6):671).

[2] = test system: fibroblasts; conditions: cited from earlier work
[3] = test system: keratinocytes; conditions: cited from earlier work
[4] = test system: small model bacterial inoculation; conditions: cited from earlier work

fibrotic adhesions to the fat pads [1]	Compound	24 hour cytotoxic limit (FCC) [2]	24 hour cytotoxic limit (KCC) [3] [µM]	minimum inhibitory concentration (MIC) ([4]; inoculation of the same size)	minimum bactericidal concentration (MBC) ([4]; small model bacterial inoculation)
no adhesions to the fat pad	poly(lactide-co-caprolactone) [LMW PLCL]				
	[Ag+] [Ag^+]	approximately 50 μM	500	about 5 μM	approximately 20 μM
